Experimental data published in patent US20210393623A1 (Jacobio Pharmaceuticals Co., Ltd., priority 2018, published 2021).

Biological target: T1, SHP2 (Homo sapiens, UniProt Q06124)
T1 sequence (Q06124 1-593): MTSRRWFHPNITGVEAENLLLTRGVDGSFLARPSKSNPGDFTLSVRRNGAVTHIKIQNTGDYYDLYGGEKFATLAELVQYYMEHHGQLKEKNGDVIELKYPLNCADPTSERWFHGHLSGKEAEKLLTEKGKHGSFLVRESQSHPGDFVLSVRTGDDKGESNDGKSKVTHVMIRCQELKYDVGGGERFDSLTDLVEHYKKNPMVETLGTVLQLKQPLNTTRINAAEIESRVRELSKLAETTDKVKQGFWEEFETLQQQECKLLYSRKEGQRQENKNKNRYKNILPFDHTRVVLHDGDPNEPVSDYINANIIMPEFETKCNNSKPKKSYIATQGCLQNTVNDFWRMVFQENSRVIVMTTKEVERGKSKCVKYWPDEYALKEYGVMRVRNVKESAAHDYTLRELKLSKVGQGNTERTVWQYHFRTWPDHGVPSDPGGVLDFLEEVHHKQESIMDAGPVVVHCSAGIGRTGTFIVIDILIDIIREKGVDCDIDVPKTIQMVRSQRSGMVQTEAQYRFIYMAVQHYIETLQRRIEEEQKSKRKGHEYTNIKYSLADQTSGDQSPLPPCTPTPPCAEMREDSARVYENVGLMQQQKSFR
Assay: Phosphatase Assay (Single Dose Inhibition)
Type: biochemical
Conditions: compound at 0.02 μM (20nM); DiFMUP substrate 12 μM; SHP2 0.5 nM activated with dPEG8 peptide; DMSO control set to 100%; triplicate
Experimental: Phosphatase Assay (Single Dose Inhibition) Assay Protocol: For single dose inhibition assays using 6,8-difluoro-4-methylumbelliferyl phosphate (DiFMUP) as a substrate, SHP2 samples (diluted to 0.5 nM in reaction buffer) were incubated with dPEG8 peptide for 30 min in reaction buffer[60 mM 3,3-dimethyl glutarate (pH7.2), 75 mM NaCl, 75 mM KCl, and 1 mM EDTA, 0.05% Tween 20, 2mM dithiothreitol (DTT) ] to active the PTP. DMSO [0.5% (v/v)] or compounds (20nM) were added to the mixture and incubated for 30 min at room temperature. Reactions were initiated by the addition of DiFMUP (12 μM; total reaction volume of 100 μL), and the fluorescence (excitation at 340 nm, emission at 450 nm) of the resulting solutions was measured on a 2104-0020 EnVision Xcite Multilabel Reader (PerkinElmer) after 30min. The experiment is carried out in triplicate. The value for the control sample (DMSO) was set to 100%, and the values for the compound-treated samples were expressed as activity relative to the control sample.

Row | Compound | inhibition at 0.02 µM [%] | SHP2 inhibition(%)
1 | Cc1nc(N2CCC3(CC2)Cc2ccccc2[C@H]3N)cnc1Sc1ccnc(N)c1Cl [Example 6, (S)-1′-(5-((2-amino-3-chloropyridin-4-yl)thio)-6-methylpyrazin-2-yl)-1,3-dihydrospiro[indene-2,4′-piperidin]-1-amine] | 89 | 
2 | ethyl (S)-3-(1-amino-1,3-dihydrospiro[indene-2,4′-piperidin]-1′-yl)-6-(2,3-dichlorophenyl)-5--2-carboxylate [Example 1] |  | 82
3 | Cc1nc(N2CCC3(CC2)Cc2ccccc2[C@H]3N)c(CO)nc1-c1cccc(Cl)c1Cl [Example 23, (S)-(3-(1-amino-1,3-dihydrospiro[indene-2,4′-piperidin]-1′-yl)-6-(2,3-dichlorophenyl)-5-methylpyrazin-2-yl)methanol] | 85 | 
4 | N[C@@H]1c2ccccc2CC12CCN(c1cnc3c(N4CCCc5ncccc54)n[nH]c3n1)CC2 [Example 50, (S)-1′-(3-(3,4-dihydro-1,5-naphthyridin-1(2H)-yl)-1H-pyrazolo[3,4-b]pyrazin-6-yl)-1,3-dihydrospiro[indene-2,4′-piperidin]-1-amine] | 86 | 
5 | CC(C)Nc1nccc(Sc2cnc(N3CCC4(CC3)Cc3ccc(S(C)(=O)=O)cc3[C@H]4N)cn2)c1Cl [Example 21, (S)-1′-(5-((3-chloro-2-(isopropylamino)pyridin-4-yl)thio)pyrazin-2-yl)-6-(methylsulfonyl)-1,3-dihydrospiro[indene-2,4′-piperidin]-1-amine] | 68 | 
6 | COc1nccc(Sc2cnc(N3CCC4(CC3)Cc3ccc(SC)cc3[C@H]4N)cn2)c1Cl [Example 19, (S)-1′-(5-((3-chloro-2-methoxypyridin-4-yl)thio)pyrazin-2-yl)-6-(methylthio)-1,3-dihydrospiro[indene-2,4′-piperidin]-1-amine] | 61 | 
7 | Cc1cccc(-c2ncc(N3CCC4(CC3)Cc3ccc(N)cc3[C@H]4N)nc2N)c1Cl [Example 47, (S)-1′-(6-amino-5-(2-chloro-3-methylphenyl)pyrazin-2-yl)-1,3-dihydrospiro[indene-2,4′-piperidine]-1,6-diamine] | 56 | 
8 | NC(=O)c1nc(Sc2cccc(Cl)c2Cl)c(N)nc1N1CCC2(CC1)Cc1ncccc1[C@H]2N [Example 31, (S)-5-amino-3-(5-amino-5,7-dihydrospiro[cyclopenta[b]pyridine-6,4′-piperidin]-1′-yl)-6-((2,3-dichlorophenyl)thio)pyrazine-2-carboxamide] | 82 | 
9 | Cc1nc(N2CCC3(CC2)Cc2ccccc2[C@H]3N)c(C(=O)O)nc1-c1cccc(Cl)c1Cl [Example 3, (S)-3-(1-amino-1,3-dihydrospiro[indene-2,4′-piperidin]-1′-yl)-6-(2,3-dichlorophenyl)-5-methylpyrazine-2-carboxylic acid] | 81 | 
10 | N#Cc1nc(Sc2cccc(Cl)c2Cl)c(N)nc1N1CCC2(CC1)Cc1ncccc1[C@H]2N [Example 30, (S)-5-amino-3-(5-amino-5,7-dihydrospiro[cyclopenta[b]pyridine-6,4′-piperidin]-1′-yl)-6-((2,3-dichlorophenyl)thio)pyrazine-2-carbonitrile] | 80 | 
11 | Nc1nc(N2CCC3(CC2)Cc2ncccc2[C@H]3N)c(Br)nc1Sc1cccc(Cl)c1Cl [Example 29, (S)-1′-(6-amino-3-bromo-5-((2,3-dichlorophenyl)thio)pyrazin-2-yl)-5,7-dihydrospiro[cyclopenta[b]pyridine-6,4′-piperidin]-5-amine] | 68 | 

More lines, now with the values ahead:

Row | inhibition at 0.02 µM [%] | SHP2 inhibition(%) | Compound
12 | 89 |  | Cc1nc(N2CCC3(CC2)Cc2ccccc2[C@H]3N)c(C(N)=O)nc1-c1cccc(Cl)c1Cl [Example 4, (S)-3-(1-amino-1,3-dihydrospiro[indene-2,4′-piperidin]-1′-yl)-6-(2,3-dichlorophenyl)-5-methylpyrazine-2-carboxamide]
13 | 87 |  | Cc1nc(N2CCC3(CC2)Cc2ccccc2[C@H]3N)c(CO)nc1Sc1ccnc(N)c1Cl [Example 24, (S)-(3-(1-amino-1,3-dihydrospiro[indene-2,4′-piperidin]-1′-yl)-6-((2-amino-3-chloropyridin-4-yl)thio)-5-methylpyrazin-2-yl)methanol]
14 | 88 |  | Cn1c(N2CCC3(CC2)Cc2ncccc2[C@H]3N)nc2[nH]nc(-c3cccc(Cl)c3Cl)c2c1=O [Example 36, (S)-6-(5-amino-5,7-dihydrospiro[cyclopenta[b]pyridine-6,4′-piperidin]-1′-yl)-3-(2,3-dichlorophenyl)-5-methyl-1,5-dihydro-4H-pyrazolo[3,4-d]pyrimidin-4-one]
15 | 74 |  | Cc1nc(N2CCC3(CC2)Cc2ncccc2[C@H]3N)c(O)nc1-c1cccc(Cl)c1Cl [Example 28, (S)-3-(5-amino-5,7-dihydrospiro[cyclopenta[b]pyridine-6,4′-piperidin]-1′-yl)-6-(2,3-dichlorophenyl)-5-methylpyrazin-2-ol]
16 | 70 |  | Nc1nccc(Sc2ccc(N3CCC4(CC3)Cc3ncccc3[C@H]4N)cn2)c1Cl [Example 33, (S)-1′-(6-((2-amino-3-chloropyridin-4-yl)thio)pyridin-3-yl)-5,7-dihydrospiro[cyclopenta[b]pyridine-6,4′-piperidin]-5-amine]
17 | 78 |  | Cc1nc(N2CCC3(CC2)Cc2ncccc2[C@H]3N)c(Br)nc1-c1cccc(Cl)c1Cl [Example 25, (S)-1′-(3-bromo-5-(2,3-dichlorophenyl)-6-methylpyrazin-2-yl)-5,7-dihydrospiro[cyclopenta[b]pyridine-6,4′-piperidin]-5-amine]
18 | 78 |  | N[C@@H]1c2cccnc2CC12CCN(c1nc3[nH]cc(-c4cccc(Cl)c4Cl)c3c(=O)[nH]1)CC2 [Example 39, (S)-2-(5-amino-5,7-dihydrospiro[cyclopenta[b]pyridine-6,4′-piperidin]-1′-yl)-5-(2,3-dichlorophenyl)-3,7-dihydro-4H-pyrrolo[2,3-d]pyrimidin-4-one]
19 | 78 |  | Cc1cccc(-c2ncc(N3CCC4(CC3)Cc3ccc(Br)cc3[C@H]4N)nc2N)c1Cl [Example 45, (S)-1′-(6-amino-5-(2-chloro-3-methylphenyl)pyrazin-2-yl)-6-bromo-1,3-dihydrospiro[indene-2,4′-piperidin]-1-amine]
20 | 68 |  | Cn1c(N2CCC3(CC2)Cc2ccccc2[C@H]3N)nc(N)c(Sc2ccnc(N)c2Cl)c1=O [Example 40]
21 | 68 |  | Cn1c(N2CCC3(CC2)Cc2ccc(F)cc2[C@H]3N)nc2[nH]nc(-c3cccc(Cl)c3Cl)c2c1=O [Example 37, (S)-6-(1-amino-6-fluoro-1,3-dihydrospiro[indene-2,4′-piperidin]-1′-yl)-3-(2,3-dichlorophenyl)-5-methyl-1,5-dihydro-4H-pyrazolo[3,4-d]pyrimidin-4-one]
22 | 64 |  | N#Cc1cnc2c(c1)[C@@H](N)C1(CCN(c3ccc(Sc4ccnc(N)c4Cl)cn3)CC1)C2 [Example 15, (S)-5-amino-1′-(5-((2-amino-3-chloropyridin-4-yl)thio)pyridin-2-yl)-5,7-dihydrospiro[cyclopenta[b]pyridine-6,4′-piperidine]-3-carbonitrile]
23 | 84 |  | CCOC(=O)c1nc(Sc2ccnc(N)c2Cl)c(C)nc1N1CCC2(CC1)Cc1ccccc1[C@H]2N [Example 5, ethyl (S)-3-(1-amino-1,3-dihydrospiro[indene-2,4′-piperidin]-1′-yl)-6-((2-amino-3-chloropyridin-4-yl)thio)-5-methylpyrazine-2-carboxylate]
24 | 75 |  | Nc1nc(N2CCC3(CC2)Cc2ncccc2[C@H]3N)ccc1Sc1ccnc(N)c1Cl [Example 32, (S)-1′-(6-amino-5-((2-amino-3-chloropyridin-4-yl)thio)pyridin-2-yl)-5,7-dihydrospiro[cyclopenta[b]pyridine-6,4′-piperidin]-5-amine]
25 | 67 |  | Cc1nc(N2CCC3(CC2)Cc2ncccc2[C@H]3N)c(C#N)nc1-c1cccc(Cl)c1Cl [Example 26, (S)-3-(5-amino-5,7-dihydrospiro[cyclopenta[b]pyridine-6,4′-piperidin]-1′-yl)-6-(2,3-dichlorophenyl)-5-methylpyrazine-2-carbonitrile]
26 | 68 |  | Nc1nc(N2CCC3(CC2)Cc2ncccc2[C@H]3N)ncc1Sc1ccnc(N)c1Cl [Example 8, (S)-1′-(4-amino-5-((2-amino-3-chloropyridin-4-yl)thio)pyrimidin-2-yl)-5,7-dihydrospiro[cyclopenta[b]pyridine-6,4′-piperidin]-5-amine]
